Measurements from PubChem BioAssay (NCI).
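Method: 48-hour compound exposure of cells in 96-well plates, five concentrations, linear interpolation of endpoints. TGI: concentration producing complete growth inhibition.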

Key:
Test in all cases: NCI-60 cell line screen, 48 h
CAKI-1 renal = test system: CAKI-1 renal
COLO 205 colon = test system: COLO 205 colon
HCC-2998 colon = test system: HCC-2998 colon
HL-60(TB) leukemia = test system: HL-60(TB) leukemia
HOP-62 NSCLC = test system: HOP-62 NSCLC
IGROV1 ovarian = test system: IGROV1 ovarian
MALME-3M melanoma = test system: MALME-3M melanoma
MDA-MB-231 breast = test system: MDA-MB-231 breast
MDA-MB-435 = test system: MDA-MB-435
NCI-H23 lung = test system: NCI-H23 lung
OVCAR-5 ovarian = test system: OVCAR-5 ovarian
RXF 393 renal = test system: RXF 393 renal
SF-268 CNS = test system: SF-268 CNS
SF-295 CNS = test system: SF-295 CNS
SK-MEL-2 melanoma = test system: SK-MEL-2 melanoma
SK-MEL-5 melanoma = test system: SK-MEL-5 melanoma
SN12C renal = test system: SN12C renal
TK-10 renal = test system: TK-10 renal

COc1ccc2nc3ccc(OC)cc3c(SCCO)c2c1
TGI (CAKI-1 renal): > 100 µM | TGI (COLO 205 colon): > 64.3 µM | TGI (HCC-2998 colon): > 100 µM | TGI (HL-60(TB) leukemia): 19.9 µM | TGI (HOP-62 NSCLC): > 100 µM | TGI (IGROV1 ovarian): > 51.1 µM | TGI (MALME-3M melanoma): > 96.2 µM | TGI (MDA-MB-231 breast): > 100 µM | TGI (MDA-MB-435): > 100 µM | TGI (NCI-H23 lung): > 100 µM | TGI (OVCAR-5 ovarian): > 100 µM | TGI (RXF 393 renal): > 100 µM | TGI (SF-268 CNS): 96.9 µM | TGI (SF-295 CNS): > 100 µM | TGI (SK-MEL-2 melanoma): > 84 µM | TGI (SK-MEL-5 melanoma): > 100 µM | TGI (SN12C renal): > 100 µM | TGI (TK-10 renal): > 100 µM

COC(=O)c1c(O)ccc2c1c1c(n2Cc2ccccc2Cl)C(=O)c2ccccc2C1=O
TGI (CAKI-1 renal): 27.4 µM | TGI (COLO 205 colon): 15.8 µM | TGI (HCC-2998 colon): 29.9 µM | TGI (HL-60(TB) leukemia): 49.6 µM | TGI (HOP-62 NSCLC): 47.9 µM | TGI (IGROV1 ovarian): 28.3 µM | TGI (MALME-3M melanoma): 31.4 µM | TGI (MDA-MB-231 breast): 32.3 µM | TGI (MDA-MB-435): 25.2 µM | TGI (NCI-H23 lung): 29.8 µM | TGI (OVCAR-5 ovarian): 39.4 µM | TGI (RXF 393 renal): 41.3 µM | TGI (SF-268 CNS): 29.4 µM | TGI (SF-295 CNS): 31.6 µM | TGI (SK-MEL-2 melanoma): 33.8 µM | TGI (SK-MEL-5 melanoma): 26.4 µM | TGI (SN12C renal): 23.2 µM | TGI (TK-10 renal): 30.6 µM

CCSc1sc(=Nc2ccc(N=c3sc(C)c(SC)s3)cc2)sc1-c1ccc(C)cc1
TGI (CAKI-1 renal): > 100 µM | TGI (COLO 205 colon): > 100 µM | TGI (HCC-2998 colon): > 100 µM | TGI (HL-60(TB) leukemia): > 100 µM | TGI (HOP-62 NSCLC): > 100 µM | TGI (IGROV1 ovarian): > 100 µM | TGI (MALME-3M melanoma): > 100 µM | TGI (MDA-MB-231 breast): > 100 µM | TGI (MDA-MB-435): > 100 µM | TGI (NCI-H23 lung): > 100 µM | TGI (OVCAR-5 ovarian): > 100 µM | TGI (RXF 393 renal): > 100 µM | TGI (SF-268 CNS): > 100 µM | TGI (SF-295 CNS): > 100 µM | TGI (SK-MEL-2 melanoma): > 100 µM | TGI (SK-MEL-5 melanoma): > 100 µM | TGI (SN12C renal): > 100 µM | TGI (TK-10 renal): > 100 µM
